The values below come from patent US10428043B2, “Green oxidation catalytic system” (TRUSTEES OF BOSTON UNIVERSITY, priority 2014, dated 2019).

A short description of data set [1]: Room temperature O2 reactivity of ferrous complexes followed by UV/vis. Conditions: methanol. The protocol:
The solution was transferred to an anaerobic UV/vis cell and sealed. An initial spectrum was obtained of the ferrous complex, and then the solution was exposed to the air. Spectra were recorded every minute for the first two minutes and then every 5-30 minutes after that for seven hours. The absorbance was monitored at 350 nm to follow formation of the oxidized complex.
This solution was then transferred to an anaerobic UV/vis cell and sealed. An initial spectrum was obtained of the ferrous complex, and then the solution was exposed to the air. Spectra were collected every minute for the first 30 minutes and then every 5-20 minutes after that for 2 hours. The absorbance was monitored at 315 nm to follow formation of the oxidized complex.

A short description of a further data set: Solubility. Type of data set: physicochemical.
Data set [2] is described as follows: Cyclic voltammetry, redox potentials. The class given is physicochemical. From the text: All reagents and solvents used were purchased from commercial sources and used as received unless otherwise noted. Prior to use, methanol (Pharmco-Aaper) was distilled over magnesium metal, dimethyl sulfoxide (Fisher Scientific) was distilled over calcium hydride, triethylamine was distilled over sodium metal and unstabilized dichloromethane (Fisher Scientific) was distilled over calcium hydride. Ferrocene was purified by sublimation for use as a reference for electrochemical analyses. All manipulations involving ferrous complexes were carried out in an inert atmosphere glovebox (M. Braun, Stratham, N.H.) with distilled and thoroughly degassed solvents. UV/Vis spectra were collected using a Hewlett Packard Spectrometer (8453). IR spectra were collected using a Thermo Nicolet AVATAR 330-FT-IR. Cyclic voltammetry experiments were performed using a Princeton Applied Research model 273 potentiostat with a glassy carbon working electrode, a silver wire reference electrode and a platinum wire counter electrode. Electron Paramagnetic Resonance (EPR) spectra were collected on a Bruker ESP-300E spectrometer operating at 9.460 GHz. NMR spectra were recorded at 25° C. using a Varian spectrometer operating at 400 MHz with all chemical shifts referenced to SiMe4. Iron concentrations were determined using a Varian AA240Z Atomic Absorption Spectrometer.
Cyclic voltammetry was performed inside an inert atmosphere (N2) box, with degassed DMSO as the solvent and tetra-N-butylammonium hexafluorophosphate as the supporting electrolyte (0.2M). The ferrocenium/ferrocene couple was used as an internal reference; reduction potential values were corrected by assigning the ferrocenium/ferrocene couple to 0.64 V versus NHE (Zanello, P. Inorganic Electrochemistry; The Royal Society of Chemistry: Cambridge, 2003). Chloride titration experiments were performed by collecting CV data after the addition of one and two 50 μL aliquots of 204 mM [NEt4][Cl] to 3.0 mL of 3.4 mM [Fe^II(N2O1py)(Cl)2]^− (concentration determined using flame atomic absorption spectroscopy) and correcting the potential with reference to the ferrocenium/ferrocene couple.
It should be noted that these redox potentials were determined in the absence of excess halide, and further CV studies will be performed in the presence of excess halide for all derivatives of the N2O1py system.

Setting [3] is: calculated from redox potentials for the one-electron transfer between iron and dioxygen.

Turning to `CN(CC(=O)[O-])Cc1ccccn1.[Cl-].[Cl-].[Fe+2]` [[Fe^II(N2O1py)(Cl)2]^−, [PSH][Fe^II(N2O1py)(Cl)2]], the “time for formation of the diferric oxo-bridged product on reaction with O2” value in data set [1] was above 7 h. Also, in “Solubility”, the “solubility properties compared with the first generation catalyst” value is given as “very similar solubility properties”. The redox potential in data set [2] came to 188 mV. In addition, the E1/2 in data set [2] (DMSO, glassy carbon working electrode, absence of excess halide) was 216 mV; in data set [2] (no added halide, in mV) it was “+216”. The Keq in data set [2] (setting [3]) is on record as 1.7 × 10^−9. The “ΔG°” value in data set [2] (setting [3]) is recorded as 50 kJ. The compound further showed a ΔE in data set [2] (no added halide) of 96 mV.
